In PubChem BioAssay (NCI):
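96-well plates; 48 h exposure; 5 concentrations. Endpoints by linear interpolation between flanking doses. Not reached: highest tested concentration assigned. The concentration for full growth arrest is given as TGI.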

Assays:
Assay in all cases: inhibition of tumour cell growth, NCI panel, 48 h
IGROV1 ovarian = tested on: IGROV1 ovarian
PC-3 prostate = tested on: PC-3 prostate
786-0 renal = tested on: 786-0 renal
MDA-MB-231 breast = tested on: MDA-MB-231 breast
KM12 colon = tested on: KM12 colon
COLO 205 colon = tested on: COLO 205 colon
HCT-116 colon = tested on: HCT-116 colon
T-47D breast = tested on: T-47D breast
MDA-MB-435 = tested on: MDA-MB-435
NCI/ADR-RES ovarian = tested on: NCI/ADR-RES ovarian
ACHN renal = tested on: ACHN renal
SK-MEL-5 melanoma = tested on: SK-MEL-5 melanoma
OVCAR-8 ovarian = tested on: OVCAR-8 ovarian
HOP-62 NSCLC = tested on: HOP-62 NSCLC
M14 melanoma = tested on: M14 melanoma
HCT-15 colon = tested on: HCT-15 colon
HS 578T breast = tested on: HS 578T breast
A498 renal = tested on: A498 renal
HT29 colon = tested on: HT29 colon
UACC-257 melanoma = tested on: UACC-257 melanoma
A549 NSCLC = tested on: A549 NSCLC
MALME-3M melanoma = tested on: MALME-3M melanoma
MOLT-4 leukemia = tested on: MOLT-4 leukemia
OVCAR-5 ovarian = tested on: OVCAR-5 ovarian
SNB-19 CNS = tested on: SNB-19 CNS
SW-620 colon = tested on: SW-620 colon
NCI-H522 lung = tested on: NCI-H522 lung
K-562 leukemia = tested on: K-562 leukemia
UO-31 renal = tested on: UO-31 renal
MCF7 breast = tested on: MCF7 breast
HL-60(TB) leukemia = tested on: HL-60(TB) leukemia
SF-268 CNS = tested on: SF-268 CNS
U251 CNS = tested on: U251 CNS
DU-145 prostate = tested on: DU-145 prostate
HOP-92 NSCLC = tested on: HOP-92 NSCLC
UACC-62 melanoma = tested on: UACC-62 melanoma
TK-10 renal = tested on: TK-10 renal
SNB-75 CNS = tested on: SNB-75 CNS
EKVX NSCLC = tested on: EKVX NSCLC
SK-MEL-28 melanoma = tested on: SK-MEL-28 melanoma
LOX IMVI melanoma = tested on: LOX IMVI melanoma
MDA-N = tested on: MDA-N
RPMI-8226 leukemia = tested on: RPMI-8226 leukemia
NCI-H226 lung = tested on: NCI-H226 lung
SN12C renal = tested on: SN12C renal
OVCAR-3 ovarian = tested on: OVCAR-3 ovarian
NCI-H460 lung = tested on: NCI-H460 lung
SR leukemia = tested on: SR leukemia
SK-OV-3 ovarian = tested on: SK-OV-3 ovarian
CAKI-1 renal = tested on: CAKI-1 renal
BT-549 breast = tested on: BT-549 breast
OVCAR-4 ovarian = tested on: OVCAR-4 ovarian
HCC-2998 colon = tested on: HCC-2998 colon
RXF 393 renal = tested on: RXF 393 renal
SK-MEL-2 melanoma = tested on: SK-MEL-2 melanoma
SF-295 CNS = tested on: SF-295 CNS
SF-539 CNS = tested on: SF-539 CNS
NCI-H23 lung = tested on: NCI-H23 lung
CCRF-CEM leukemia = tested on: CCRF-CEM leukemia

**Q.** Which results are given for `Clc1ccc(Cc2nc3cc(Cl)c(Cl)cc3n2CC2CCCN3CCCCC23)cc1Cl` (stereo not given)?
**A.** TGI (IGROV1 ovarian): 15.4 µM; TGI (PC-3 prostate): 14.1 µM; TGI (786-0 renal): 12.7 µM; TGI (MDA-MB-231 breast): 7.84 µM; TGI (KM12 colon): 7.51 µM; TGI (COLO 205 colon): 4.83 µM; TGI (HCT-116 colon): 10.7 µM; TGI (T-47D breast): 33.4 µM; TGI (MDA-MB-435): 17.2 µM; TGI (NCI/ADR-RES ovarian): 17.2 µM; TGI (ACHN renal): 16.1 µM; TGI (SK-MEL-5 melanoma): 4.38 µM; TGI (OVCAR-8 ovarian): 22.6 µM; TGI (HOP-62 NSCLC): 24.5 µM; TGI (M14 melanoma): 4.04 µM; TGI (HCT-15 colon): 17.1 µM; TGI (HS 578T breast): 19.2 µM; TGI (A498 renal): 21 µM; TGI (HT29 colon): 6.85 µM; TGI (UACC-257 melanoma): 10.6 µM; TGI (A549 NSCLC): 20 µM; TGI (MALME-3M melanoma): 3.91 µM; TGI (MOLT-4 leukemia): > 100 µM; TGI (OVCAR-5 ovarian): 12.3 µM; TGI (SNB-19 CNS): 8.2 µM; TGI (SW-620 colon): 4.9 µM; TGI (NCI-H522 lung): 3.54 µM; TGI (K-562 leukemia): > 100 µM; TGI (UO-31 renal): 1.25 µM; TGI (MCF7 breast): 7.15 µM; TGI (HL-60(TB) leukemia): 5.93 µM; TGI (SF-268 CNS): 15.8 µM; TGI (U251 CNS): 13.7 µM; TGI (DU-145 prostate): 19.4 µM; TGI (HOP-92 NSCLC): 22.8 µM; TGI (UACC-62 melanoma): 5.42 µM; TGI (TK-10 renal): 19.5 µM; TGI (SNB-75 CNS): 12 µM; TGI (EKVX NSCLC): 11.1 µM; TGI (SK-MEL-28 melanoma): 10.7 µM; TGI (LOX IMVI melanoma): 6 µM; TGI (MDA-N): 16.5 µM; TGI (RPMI-8226 leukemia): > 100 µM; TGI (NCI-H226 lung): 26.8 µM; TGI (SN12C renal): 15.8 µM; TGI (OVCAR-3 ovarian): 33.2 µM; TGI (NCI-H460 lung): 9.75 µM; TGI (SR leukemia): 7.6 µM; TGI (SK-OV-3 ovarian): 13.4 µM; TGI (CAKI-1 renal): 15.9 µM; TGI (BT-549 breast): 21.4 µM; TGI (OVCAR-4 ovarian): 20.3 µM; TGI (HCC-2998 colon): 3.45 µM; TGI (RXF 393 renal): 30.7 µM; TGI (SK-MEL-2 melanoma): 19.7 µM; TGI (SF-295 CNS): 10.5 µM; TGI (SF-539 CNS): 4.17 µM

**Q.** Which TGI (IGROV1 ovarian) does the source give for `C1CSC2=C(S1)SC1=C(S2)SC(=C2SC3=C(SC4=C(SCCS4)S3)S2)S1` here?
**A.** The TGI was > 100 µM.

**Q.** And the TGI (PC-3 prostate)?
**A.** Its TGI is > 100 µM.

**Q.** And the TGI (786-0 renal)?
**A.** Its TGI is > 100 µM.

**Q.** And the TGI (MDA-MB-231 breast)?
**A.** The TGI was > 100 µM.

**Q.** What about the TGI (KM12 colon) of the same compound?
**A.** Its TGI is > 100 µM.

**Q.** And the TGI (COLO 205 colon)?
**A.** Its TGI is > 100 µM.

**Q.** And the TGI (HCT-116 colon)?
**A.** The TGI was > 100 µM.

**Q.** And the TGI (T-47D breast)?
**A.** The TGI was > 100 µM.

**Q.** And the TGI (NCI-H23 lung)?
**A.** Its TGI is > 100 µM.

**Q.** What about the TGI (MDA-MB-435) of the same compound?
**A.** Its TGI is > 100 µM.

**Q.** What about the TGI (NCI/ADR-RES ovarian) of the same compound?
**A.** The TGI was > 100 µM.

**Q.** What about the TGI (ACHN renal) of the same compound?
**A.** The TGI was > 100 µM.

**Q.** What about the TGI (SK-MEL-5 melanoma) of the same compound?
**A.** Its TGI is > 100 µM.

**Q.** What about the TGI (OVCAR-8 ovarian) of the same compound?
**A.** Its TGI is > 100 µM.

**Q.** And the TGI (HOP-62 NSCLC)?
**A.** Its TGI is > 100 µM.

**Q.** And the TGI (M14 melanoma)?
**A.** Its TGI is > 100 µM.

**Q.** And the TGI (HCT-15 colon)?
**A.** The TGI was > 100 µM.

**Q.** What about the TGI (HS 578T breast) of the same compound?
**A.** The TGI was > 100 µM.

**Q.** And the TGI (A498 renal)?
**A.** The TGI was > 100 µM.

**Q.** And the TGI (HT29 colon)?
**A.** Its TGI is > 100 µM.

**Q.** What about the TGI (UACC-257 melanoma) of the same compound?
**A.** The TGI was > 100 µM.

**Q.** And the TGI (A549 NSCLC)?
**A.** The TGI was > 100 µM.

**Q.** And the TGI (MALME-3M melanoma)?
**A.** Its TGI is > 100 µM.

**Q.** What about the TGI (MOLT-4 leukemia) of the same compound?
**A.** The TGI was > 100 µM.

**Q.** And the TGI (OVCAR-5 ovarian)?
**A.** The TGI was > 100 µM.

**Q.** What about the TGI (SNB-19 CNS) of the same compound?
**A.** The TGI was > 100 µM.

**Q.** What about the TGI (SW-620 colon) of the same compound?
**A.** Its TGI is > 100 µM.

**Q.** What about the TGI (NCI-H522 lung) of the same compound?
**A.** Its TGI is > 100 µM.

**Q.** And the TGI (CCRF-CEM leukemia)?
**A.** Its TGI is > 100 µM.

**Q.** What about the TGI (K-562 leukemia) of the same compound?
**A.** The TGI was > 100 µM.

**Q.** And the TGI (UO-31 renal)?
**A.** Its TGI is > 100 µM.

**Q.** What about the TGI (MCF7 breast) of the same compound?
**A.** The TGI was > 100 µM.

**Q.** What about the TGI (HL-60(TB) leukemia) of the same compound?
**A.** Its TGI is > 100 µM.

**Q.** And the TGI (SF-268 CNS)?
**A.** The TGI was > 100 µM.

**Q.** What about the TGI (U251 CNS) of the same compound?
**A.** The TGI was > 100 µM.

**Q.** What about the TGI (DU-145 prostate) of the same compound?
**A.** The TGI was > 100 µM.

**Q.** And the TGI (HOP-92 NSCLC)?
**A.** The TGI was > 100 µM.

**Q.** What about the TGI (UACC-62 melanoma) of the same compound?
**A.** The TGI was > 100 µM.

**Q.** What about the TGI (TK-10 renal) of the same compound?
**A.** The TGI was > 100 µM.

**Q.** And the TGI (SNB-75 CNS)?
**A.** Its TGI is > 100 µM.

**Q.** What about the TGI (EKVX NSCLC) of the same compound?
**A.** The TGI was > 100 µM.

**Q.** And the TGI (SK-MEL-28 melanoma)?
**A.** The TGI was > 100 µM.

**Q.** What about the TGI (MDA-N) of the same compound?
**A.** The TGI was > 100 µM.

**Q.** And the TGI (RPMI-8226 leukemia)?
**A.** Its TGI is > 100 µM.

**Q.** What about the TGI (NCI-H226 lung) of the same compound?
**A.** Its TGI is > 100 µM.

**Q.** What about the TGI (SN12C renal) of the same compound?
**A.** The TGI was > 100 µM.

**Q.** What about the TGI (OVCAR-3 ovarian) of the same compound?
**A.** Its TGI is > 100 µM.

**Q.** What about the TGI (NCI-H460 lung) of the same compound?
**A.** The TGI was > 100 µM.

**Q.** What about the TGI (SR leukemia) of the same compound?
**A.** Its TGI is > 100 µM.

**Q.** What about the TGI (SK-OV-3 ovarian) of the same compound?
**A.** The TGI was > 100 µM.

**Q.** And the TGI (CAKI-1 renal)?
**A.** The TGI was > 100 µM.

**Q.** And the TGI (BT-549 breast)?
**A.** The TGI was > 100 µM.

**Q.** And the TGI (OVCAR-4 ovarian)?
**A.** The TGI was > 100 µM.

**Q.** And the TGI (HCC-2998 colon)?
**A.** The TGI was > 100 µM.

**Q.** And the TGI (RXF 393 renal)?
**A.** Its TGI is > 100 µM.

**Q.** What about the TGI (SK-MEL-2 melanoma) of the same compound?
**A.** The TGI was > 100 µM.

**Q.** And the TGI (SF-295 CNS)?
**A.** Its TGI is > 100 µM.

**Q.** What about the TGI (SF-539 CNS) of the same compound?
**A.** The TGI was > 100 µM.
